Consider one compound from article PMC7684578, “Isopedopeptins A–H: Cationic Cyclic Lipodepsipeptides from Pedobacter cryoconitis UP508 Targeting WHO Top-Priority Carbapenem-Resistant Bacteria” (ACS Chemical Biology, 2020).

Common to all, as to type: cell-based
In series [1] the test system is red blood cells from heparinized human blood. Description: in vitro. The settings on record: 45 min, 100 µM, pH 7.4. The protocol:
positive control (Bortezomib) SI of <5%. The half maximal inhibitory concentration (IC50) was determined from log concentration-effect curves using non-linear regression analysis.
Frequency of resistance (FoR). For the determination of the FoR, the MIC of compound 2 was first evaluated on solid MH-agar medium prepared in 35 mm diameter plates. Each plate contained 4 mL agar with the appropriate amount of compound. Bacterial cultures were grown and prepared as described for the MIC assay. 13 µL of bacterial culture diluted to 0.5 MacFarland was inoculated into 1 mL 0.9% NaCl resulting in ~2 × 10^6 CFU/mL. 5 µL of this bacterial suspension was spotted onto the surface of each agar plate (~10^4 CFU/spot). Plates were sealed and incubated at 37°C for 18–20 hours. Agar MIC was recorded according to CLSI guidelines as the lowest concentration of […]
faint haze caused by the inoculum. Then 9 cm plates were prepared with 25 mL MHII agar medium containing 4 × or 8 × solid MIC concentrations of test compounds and seeded with 100 µL of a bacterial preparation, concentrated by centrifugation from overnight cultures and resuspended in 0.9% NaCl, corresponding to 108 CFU and 109 CFU per plate, and spread on the agar using 4–5 glass beads of 4 mm diameter. Since CFU were evaluated using the McFarland turbidity standard, the exact CFU number plated was evaluated by plating of serial dilutions of each inoculum preparation on MHII agar plates. Plates were incubated at 37°C and colonies were counted at 24 h and 48 h post-plating. The frequencies of resistance were then calculated by counting the number of validated resistant colonies growing on antibiotic preparations divided by the evaluated number of CFU in the inoculum.
Hemolysis assay. Compounds were evaluated for hemolytic activity using red blood cells from heparinized human blood. Red blood cells (RBC) were washed three times in Tyrode buffer (130 mM NaCl, 4 mM KCl, 2.8 mM NaOAc, 1 mM MgCl2, 10 mM HEPES, 10 mM glucose, 1 mM CaCl2, adjusted to pH 7.4) and resuspended in the same buffer. Final concentrations in the hemolysis assay were: 100 µM compound, 1% DMSO, and 50% RBC, assayed in a 200 µL volume in a microtiter plate. The mixture was incubated at 37 °C for 45 min with shaking (250 rpm). After incubation, RBCs were removed by centrifugation (1000 × g for 10 min), 100 µL clear plasma was transferred to a fresh microtiter plate, and the amount of hemoglobin measured using a spectrophotometer at 540 nm. The […]
complete lysis control contained 2% Triton X-100 (in Tyrode buffer) instead of compound; the negative control contained Tyrode buffer but no compound. Percent hemolysis was calculated as:
[Abs compound] - [Abs negative control] / [Abs complete lysis control] - [Abs negative control] ×
100. Values greater than 1% hemolysis at 100 µM were regarded as a red flag.
Bacterial membrane permeabilization assay. Liposomes were manufactured and permeabilization assayed as described previously.8 Briefly, dry lipid films of E. coli polar lipid extract were formed on round-bottom flask walls. This was achieved by dissolving lipids in chloroform and evaporating the solvent under agitation and nitrogen gas flow, followed by incubation in vacuum chamber. Lipid films were re-suspended by 30 min stirring (E. coli) at 55°C in an aqueous solution of 100 mM 5(6)-carboxyfluorescein in 10 mM Tris buffer (set to pH 7.4 at 37°C). Suspensions were subjected to repeated extrusion through a 100 nm pore size polycarbonate membrane in order to reduce multilamellar structures and polydispersity. Un-trapped carboxyfluorescein was removed by gel filtration. Membrane permeability was measured by monitoring carboxyfluorescein efflux from the liposomes to the external low concentration environment, resulting in loss of self-quenching and an increased fluorescence signal. The 96-well plates were prepared with a 2-fold serial dilution of the samples in Tris buffer, as well as negative controls (background) and 0.16% Triton X-100 (maximum […]
leakage). […]

For series [2], the system named is A. baumannii. Description: MIC determined at the Public Health Agency of Sweden (EUCAST). Conditions: Acinetobacter baumannii. The procedure:
(§1) 10^8 CFU/mL) with turbidity assessed using a Sensititre Nephelometer (Trek Diagnostics Systems Ltd, UK). 50 µL of this bacterial suspension was transferred to 10 mL of MHII broth to give a final bacterial concentration ≅ 5 × 10^5 CFU/mL (acceptable range 3 – 7 × 10^5 CFU/mL). 50 µL of bacterial suspension was pipetted into each well (except the medium control well, where 50 µL MHII was pipetted). Final volume in each well was 100 µL. Plates were covered and incubated without shaking for 18-20 h at 35 °C ± 2 °C. MIC was read visually, as complete inhibition of growth by the unaided eye, using the medium-only wells as the control. Each compound was assayed at least in duplicate.
(§2) Additionally, the MIC for compound 2 against clinical carbapenem-resistant strains of A. baumannii […]
(§3) determined at the Public Health Agency of Sweden (according to EUCAST recommendations).
(§4) In vitro Cytotoxicity Determination. In vitro cytotoxicity was determined by a fluorometric microculture cytotoxicity assay,7 based on hydrolysis of fluorescein diacetate to fluorescein by cells with intact plasma membranes. In short, HepG2 cells (hepatocellular carcinoma cells, ATCC), in Eagle's Minimum Essential Medium (ATCC) supplemented with 10 % fetal bovine serum, penicillin/streptomycin (100 U/100 µg/mL) and 2 mM L-glutamine, were seeded in 384-well assay plates at a density of 1000 cells/well. The cells were incubated over night at 37°C and compounds in 10 mM DMSO were added, to obtain final concentrations 64 µM – 0.25 µM in two-fold dilutions.
(§5) After incubation for 72 h at 37°C, the cells were pelleted and washed. Fluorescein diacetate was added (1 µL, 0.5 mg/mL) and the fluorescence [485 nm(exc)/530 nm(em.)] was measured after 50 min at 37°C. Bortezomib (2 µM) was used as positive control and dose response testing of doxorubicin (top concentration 2 µM) was performed repeatedly to follow assay performance over time. Cytotoxicity was assessed after 72 h with cell survival presented as survival index (SI, %) defined as fluorescence in test wells in percent of control cultures with blank values subtracted.
(§6) Criteria for a successful assay include a signal-to-noise ratio in control cultures >10, CV <30% and a 7 Lindhagen, E., Nygren, P., and Larsson, R. (2008) The fluorometric microculture cytotoxicity assay. Nat.

For series [3], the system named is E. coli. The series is described as above. The settings on record: Escherichia coli. The protocol: as §1, §2, §3, §4, §5, §6

In brackets after ≈: the same amount, converted by molar mass. Like-named read-outs stand apart in the source and are kept apart here. Starred links: 1 amine or outer side, 2 acyl side, 3 side chain; linkers in the order of their positions; H or OH if unused. Positions of bridges follow the written chain, without caps; N, C: chain ends. Non-standard residues stand in square brackets, D forms with d. Residues, ends and D or L forms follow the SMILES beside them. X2 = CCCCCCC[C@H](CC(=O)[*:1])O[*:2]; Val(3-OH) = CC(C)(O)[C@H](N)C(=O)O; X1 = C/C=C(/N[*:1])C(=O)[*:2]; Dab = NCC[C@H](N)C(=O)O; Dap = NC[C@H](N)C(=O)O

For the compound `C/C=C1/NC(=O)[C@H](CCN)NC(=O)[C@H](CC(C)C)NC(=O)[C@H](CN)NC(=O)C[C@@H](CCCCCCC)OC(=O)[C@H](CC(=O)O)NC(=O)[C@H](C(C)(C)O)NC(=O)[C@@H](Cc2ccccc2)NC(=O)[C@H](CN)NC(=O)[C@H]([C@@H](C)O)NC1=O` [Compound 2, isopedopeptin B] ([Dap]L[Dab][X1]T[Dap][dF][Val(3-OH)]D; linker N-C via X2), the “Hemolysis (%)” value in series [1] is 0.8%. The MIC was 2 µg/mL (≈ 1.79 µM) in series [2] (CARBA, Public Health Agency of Sweden, read-out: MIC A. baumannii A219); 2 µg/mL (≈ 1.79 µM) in series [2] (CARBA, Public Health Agency of Sweden, read-out: MIC A. baumannii A250); ≥ 1 µg/mL in series [2] (summary in text over strains, strains not named, read-out: MIC carbapenem-resistant A. baumannii); 1 µg/mL (≈ 0.895 µM) in series [3] (ATCC25922, WT, Public Health Agency of Sweden, read-out: MIC E. coli ATCC25922); 2 µg/mL (≈ 1.79 µM) in series [3] (CARBA, Public Health Agency of Sweden, read-out: MIC E. coli EC4129); 1 µg/mL (≈ 0.895 µM) in series [3] (CARBA, Public Health Agency of Sweden, read-out: MIC E. coli EC4163). For the same compound, the MIC in series [3] (summary in text over strains, strains not named, read-out: MIC carbapenem-resistant E. coli) is ≥ 2 µg/mL.
